Assay results taken from patent US11285127B2, “Compositions and methods for lowering triglycerides without raising LDL-C levels in a subject on concomitant statin therapy” (Amarin Pharmaceuticals Ireland Limited, priority 2013, dated 2022).

Test system: patients with fasting triglyceride levels >200 mg/dl and <500 mg/dl despite statin therapy
Assay: 12-week study: lipoprotein particle concentration (VLDL, LDL, HDL; nuclear magnetic resonance)
Assay type: in vivo, human
Description: Parameters (a)-(z) can be measured in accordance with any clinically acceptable methodology. For example, triglycerides, total cholesterol, HDL-C and fasting blood sugar can be sample from serum and analyzed using standard photometry techniques. VLDL-TG, LDL-C and VLDL-C can be calculated or determined using serum lipoprotein fractionation by preparative ultracentrifugation and subsequent quantitative analysis by refractometry or by analytic ultracentrifugal methodology. Apo A1, Apo B and hsCRP can be determined from serum using standard nephelometry techniques. Lipoprotein (a) can be determined from serum using standard turbidimetric immunoassay techniques. LDL particle number and particle size can be determined using nuclear magnetic resonance (NMR) spectrometry. Remnants lipoproteins and LDL-phospholipase A2 can be determined from EDTA plasma or serum and serum, respectively, using enzymatic immunoseparation techniques. Oxidized LDL, intercellular adhesion molecule-1 and interleukin-2 levels can be determined from serum using standard enzyme immunoassay techniques. These techniques are described in detail in standard textbooks, for example Tietz Fundamentals of Clinical Chemistry, 6th Ed. (Burtis, Ashwood and Borter Eds.), WB Saunders Company.
A multi-center, placebo-controlled, randomized, double-blind, 12-week study was performed to evaluate the efficacy and safety of >96% E-EPA in patients with fasting triglyceride levels >200 mg/dl and <500 mg/dl despite statin therapy (the mean of two qualifying entry values needed to be >185 mg/dl and at least one of the values needed to be >200 mg/dl). The primary objective of the study was to determine the efficacy of >96% E-EPA 2 g daily and 4 g daily, compared to placebo, in lowering fasting TG levels in patients with high risk for cardiovascular disease and with fasting TG levels 200 mg/dl and <500 mg/dl, despite treatment to LDL-C goal on statin therapy.
The secondary objectives of this study were the following: • 1. To determine the safety and tolerability of >96% E-EPA 2 g daily and 4 g daily; • 2. To determine the effect of >96% E-EPA on lipid and apolipoprotein profiles including total cholesterol (TC), non-high-density lipoprotein cholesterol (non-HDL-C), low density lipoprotein cholesterol (LDL-C), high density lipoprotein cholesterol (HDL-C), and […]; • 3. To determine the effect of >96% E-EPA on lipoprotein associated phospholipase A2 (Lp-PLA2) from baseline to week 12; • 4. To determine the effect of >96% E-EPA on low-density lipoprotein (LDL) particle number and size; • 5. To determine the effect of >96% E-EPA on oxidized LDL; • 6. To determine the effect of >96% E-EPA on fasting plasma glucose (FPG) and hemoglobin A1c (HbA1c); • 7. To determine the effect of >96% E-EPA on insulin resistance; • 8. To determine the effect of >96% E-EPA on high-sensitivity C-reactive protein (hsCRP); • 9. To determine the effects of >96% E-EPA 2 g daily and 4 g daily on the incorporation of fatty acids into red blood cell membranes and into plasma phospholipids; • 10. To explore the relationship between baseline fasting TG levels and the reduction in fasting TG levels; and • 11. To explore the relationship between changes of fatty acid concentrations in plasma and red blood cell membranes, and the reduction in fasting TG levels.
The primary efficacy variable for the double-blind treatment period was percent change in TG from baseline to Week 12 endpoint. […]

[1] = IPE 4 g/day (n = 216), 12 weeks
[2] = IPE 4 g/day (n = 216); 12 weeks
[3] = IPE 4 g/day (n = 216); 12 weeks; IDL (23-29 nm)
[4] = IPE 4 g/day (n = 216); 12 weeks; large HDL (9.4-14.0 nm)
[5] = IPE 4 g/day (n = 216); 12 weeks; large LDL (20.5-23.0 nm)
[6] = IPE 4 g/day (n = 216); 12 weeks; large VLDL (>60 nm)
[7] = IPE 4 g/day (n = 216); 12 weeks; medium HDL (8.2-9.4 nm)
[8] = IPE 4 g/day (n = 216); 12 weeks; medium VLDL (42-60 nm)
[9] = IPE 4 g/day (n = 216); 12 weeks; small HDL (7.3-8.2 nm)
[10] = IPE 4 g/day (n = 216); 12 weeks; small LDL (18.0-20.5 nm)
[11] = IPE 4 g/day (n = 216); 12 weeks; small VLDL (29-42 nm)
[12] = IPE 4 g/day vs placebo; 12 weeks; Hodges-Lehmann median

## CC/C=C\C/C=C\C/C=C\C/C=C\C/C=C\CCCC(=O)OCC [AMR101, ethyl eicosapentaenoate]
IPE 2 g/day (n = 222), 12 weeks
  Total VLDL particle concentration, End of Treatment (median): 122.4 nmol/L
[1]
  IDL particle concentration, Change from Baseline % (median): 23.7%
  IDL particle concentration, End of Treatment (median): 63.0 nmol/L
  Large HDL particle concentration, Change from Baseline % (median): −21.6%
  Large HDL particle concentration, End of Treatment (median): 1.9 µmol/L
  Large LDL particle concentration, Change from Baseline % (median): 55.2%
  Large LDL particle concentration, End of Treatment (median): 172.5 nmol/L
  Large VLDL particle concentration, Change from Baseline % (median): −41.9%
  Large VLDL particle concentration, End of Treatment (median): 7.7 nM
  Medium HDL particle concentration, Change from Baseline % (median): 4.2%
  Medium HDL particle concentration, End of Treatment (median): 6.9 µmol/L
  Medium VLDL particle concentration, Change from Baseline % (median): −6.9%
  Medium VLDL particle concentration, End of Treatment (median): 49.7 nmol/L
  Small HDL particle concentration, Change from Baseline % (median): −3.9%
  Small HDL particle concentration, End of Treatment (median): 23.1 µmol/L
  Small LDL particle concentration, Change from Baseline % (median): −1.1%
  Small LDL particle concentration, End of Treatment (median): 902.5 nmol/L
  Small VLDL particle concentration, Change from Baseline % (median): 8.3%
  Small VLDL particle concentration, End of Treatment (median): 46.8 nmol/L
  Total HDL particle concentration, Change from Baseline % (median): −4.0%
  Total HDL particle concentration, End of Treatment (median): 32.6 µmol/L
  Total LDL particle concentration, Change from Baseline % (median): 3.8%
  Total LDL particle concentration, End of Treatment (median): 1191 nmol/L
  Total VLDL particle concentration, Change from Baseline % (median): −2.5%
  Total VLDL particle concentration, End of Treatment (median): 110.0 nmol/L
[2]
  Total HDL particle concentration, Change from Baseline % (median): −4.0%
  Total HDL particle concentration, End of Treatment (median): 32.6 μmon/L
  Total LDL particle concentration, Change from Baseline % (median): 3.8%
  Total LDL particle concentration, End of Treatment (median): 1191 nmol/L
  Total VLDL particle concentration, Change from Baseline % (median): −2.5%
  Total VLDL particle concentration, End of Treatment (median): 110.0 nmol/L
[3]
  IDL particle concentration, Change from Baseline % (median): 23.7%
  IDL particle concentration, End of Treatment (median): 63.0 nmol/L
[4]
  Large HDL particle concentration, Change from Baseline % (median): −21.6%
  Large HDL particle concentration, End of Treatment (median): 1.9 μmon
[5]
  Large LDL particle concentration, Change from Baseline % (median): 55.2%
  Large LDL particle concentration, End of Treatment (median): 172.5 nmol/L
[6]
  Large VLDL particle concentration, Change from Baseline % (median): −41.9%
  Large VLDL particle concentration, End of Treatment (median): 7.7 nM
[7]
  Medium HDL particle concentration, Change from Baseline % (median): 4.2%
  Medium HDL particle concentration, End of Treatment (median): 6.9 μmon/L
[8]
  Medium VLDL particle concentration, Change from Baseline % (median): −6.9%
  Medium VLDL particle concentration, End of Treatment (median): 49.7 nmol/L
[9]
  Small HDL particle concentration, Change from Baseline % (median): −3.9%
  Small HDL particle concentration, End of Treatment (median): 23.1 μmon/L
[10]
  Small LDL particle concentration, Change from Baseline % (median): −1.1%
  Small LDL particle concentration, End of Treatment (median): 902.5 nmol/L
[11]
  Small VLDL particle concentration, Change from Baseline % (median): 8.3%
  Small VLDL particle concentration, End of Treatment (median): 46.8 nmol/L
[12]
  Total HDL particle concentration, Median Change From Baseline IPE 4 g/day vs Placebo, %: −7.4%
  Total LDL particle concentration, Median Change From Baseline IPE 4 g/day vs Placebo, %: −7.7%
  Total VLDL particle concentration, Median Change From Baseline IPE 4 g/day vs Placebo, %: −12.2%
IPE 4 g/day vs placebo; 12 weeks; Hodges-Lehmann median; IDL (23-29 nm)
  IDL particle concentration, Median Change From Baseline IPE 4 g/day vs Placebo, %: 10.0%
IPE 4 g/day vs placebo; 12 weeks; Hodges-Lehmann median; large HDL (9.4-14.0 nm)
  Large HDL particle concentration, Median Change From Baseline IPE 4 g/day vs Placebo, %: −31.0%
IPE 4 g/day vs placebo; 12 weeks; Hodges-Lehmann median; large LDL (20.5-23.0 nm)
  Large LDL particle concentration, Median Change From Baseline IPE 4 g/day vs Placebo, %: 34.2%
IPE 4 g/day vs placebo; 12 weeks; Hodges-Lehmann median; large VLDL (>60 nm)
  Large VLDL particle concentration, Median Change From Baseline IPE 4 g/day vs Placebo, %: −46.4%
IPE 4 g/day vs placebo; 12 weeks; Hodges-Lehmann median; medium HDL (8.2-9.4 nm)
  Medium HDL particle concentration, Median Change From Baseline IPE 4 g/day vs Placebo, %: −6.5%
IPE 4 g/day vs placebo; 12 weeks; Hodges-Lehmann median; medium VLDL (42-60 nm)
  Medium VLDL particle concentration, Median Change From Baseline IPE 4 g/day vs Placebo, %: −12.1%
IPE 4 g/day vs placebo; 12 weeks; Hodges-Lehmann median; small HDL (7.3-8.2 nm)
  Small HDL particle concentration, Median Change From Baseline IPE 4 g/day vs Placebo, %: −2.8%
IPE 4 g/day vs placebo; 12 weeks; Hodges-Lehmann median; small LDL (18.0-20.5 nm)
  Small LDL particle concentration, Median Change From Baseline IPE 4 g/day vs Placebo, %: −13.5%
IPE 4 g/day vs placebo; 12 weeks; Hodges-Lehmann median; small VLDL (29-42 nm)
  Small VLDL particle concentration, Median Change From Baseline IPE 4 g/day vs Placebo, %: 2.8%
